The values below come from patent publication US20230416791A1, “METHOD TO PRODUCE BRANCHED-CHAIN POLYHYDROXYALKANOATES AND BRANCHED-CHAIN 3-HYDROXYACIDS FROM GLUCOSE” (Alliance for Sustainable Energy, LLC, priority 2022, published 2023).

A word on the Km: it is the substrate concentration at which the rate is half of its maximum. What is called kcat is the maximal rate divided by the concentration of active sites. Usually kcat/Km stands for the turnover number divided by the Michaelis constant.

Data set [1] relates to ΔmadB ΔfabH1 P. putida. Kind of data set: Growth curves with straight-chain fatty acid supplementation (microplate reader). In kind it is cell-based, Pseudomonas putida KT2440. The following applies: fatty acid sodium salt at 100 μg/mL, modified M9 with glucose, 30° C. How it is done: (§1) Microplate reader experiments. Microplate reader experiments were performed by inoculating seed cultures from glycerol stocks into 10 mL of LB Broth (Miller; Sigma-Aldrich) with appropriate antibiotics in a 125 mL flask and incubating overnight at 30° C. (P. putida) or 37° C. (E. coli) and 225 rpm. Overnight cultures were then used to inoculate a second seed culture into 10 mL of LB Broth (Miller; Sigma-Aldrich) with appropriate antibiotics in a 125 mL flask starting at an optical density of 0.2 measured at 600 nm (0D600) using a GENESYS™ 140 Visible Light Spectrophotometer (Thermo Scientific). The second seed cultures were incubated at 30° C. (P. putida) or 37° C. (E. coli) at 225 rpm for 2-4 hrs until an OD600 of approximately 2 was reached. The second seed cultures were centrifuged at 8,000 rpm for 3 min, the pellets were washed with 1× M9, minimal salts (Sigma-Aldrich) three times, and resuspended to an OD600=3.0. Cells (10 μL) were transferred to five replicate wells in a 100-well Honeycomb 2 plate (Growth Curves USA) containing 290 μL of growth medium, corresponding to initial OD600=0.1. E. coli strains were grown in LB Broth (Miller; Sigma-Aldrich) at 37° C. and supplemented with 50 μg/mL kanamycin and 0.1 mM isopropylthio-β-galactoside (IPTG; GoldBio) when appropriate. P. putida strains were grown in modified M9 minimal media containing 6.78 g/L Na2HPO4, 3 g/L KH2PO4, 1 g/L NH4C1, 0.5 g/L NaCl, 2 mM MgSO4, 100 μM CaCl2, and 2 g/L glucose at 30° C. For fatty acid supplementation experiments, sodium salts of a given fatty acid (Sigma-Aldrich) were added to a final concentration of 100 μg/mL. OD600 measurements were acquired every 15 min with a Bioscreen C Pro (Growth Curves USA) and plate was shaken continuously. Maximum specific growth rates were calculated using a spline model (https://github.com/scott-saunders/growth_curve_fitting).

Data set [2] has as its system P. putida KT2440 ΔmadB ΔfabH1. Kind of data set: Growth of P. putida ΔmadB ΔfabH1 supplemented with straight-chain fatty acids. Type of data set: cell-based, Pseudomonas putida KT2440. The following applies: 100 μg/mL, modified M9 minimal medium, 30° C. How it is done: as §1
For data set [3], the system named is MadB. Kind of data set: Transformation of non-EcAcpP substrate by MadB (HPLC / LC-MS detection). Type of data set: biochemical, Pseudomonas putida KT2440. The following applies: 1 mM substrate, 5 μM MadB, HEPES pH 7.5, room temperature. How it is done: Transformation of non-EcAcpP substrate by MadB. […] The reaction contained 1 mM of the alternate substrate and 5 μM of MadB in HEPES (I=0.1 M) pH 7.5 supplemented with 10 mM MgCl2 and 1 mM TCEP. The reaction was incubated at room temperature with an intermittent agitation for −1 hour prior to being passed through a 0.2 μm filter and frozen until further analysis.
Detection of various CoA analytes in the samples were performed on an Agilent 1200 HPLC system (Agilent Technologies) equipped with an Agilent 6120 mass spectrometer detector (MS). Each sample and standard were injected at a volume of 2 μL on a Phenomenex Luna C18(2)-HST column 100A′, […], 2.0×100 mm column (Phenomenex). The column temperature was maintained at 45° C. and the buffers used to separate the analytes of interest was 0.1% formic acid in water (A)/0.1% formic acid in acetonitrile (B). A gradient program was used to separate the analytes of interest: (A)=100% and (B)=0% at time t=0; (A)=100% and (B)=0% at t=1 min; (A)=50% and (B)=50% at t=7.65 min; (A)=30% and (B)=70% at t=9.33 min; (A)=30% and (B)=70% at t=10.67 min; (A)=100% and (B)=0% at t=10.68 min; (A)=100% and (B)=0% at t=13 min. The flow rate was held constant at 0.50 mL/min resulting in a run time of 13 minutes. The MS system was setup in positive electrospray ionization mode with a gas temperature of 350° C., drying gas at 12 L/min, nebulizer pressure set to 35 psig, and a Vcap voltage of 3000v. A total of four different masses in SIM mode from the MS detector were used to determine the presence and or absence of each analyte of interest. […] One standard from each analyte was used to determine the elution order and retention times of the compounds.
Detection of malonic and acetic acid was performed on an Agilent 1290 HPLC system (Agilent Technologies) equipped with an Agilent G7117A diode array detector (DAD). NREL's laboratory analytical procedure “Determination of Structural Carbohydrates and Lignin in Biomass” (Sluiter et al., 2012) HPLC method was used to detect the analytes of interest as outlined below. […]

Data set [4] concerns the target T1, Pseudomonas putida KT2440 MadB (PP_0262) variant Asn45Ala (N45A) (Pseudomonas putida, UniProt Q88R72, N45A).
T1 sequence (Q88R72 1-151 N45A): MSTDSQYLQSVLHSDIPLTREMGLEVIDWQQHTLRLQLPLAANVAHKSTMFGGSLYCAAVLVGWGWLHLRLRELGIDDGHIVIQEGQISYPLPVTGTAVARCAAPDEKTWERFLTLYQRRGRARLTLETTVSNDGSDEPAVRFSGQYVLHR
Kind of data set: ITC steady-state kinetics of malonyl-CoA decarboxylation. An excerpt:
(§2) Kinetic determination using ITC.
(§3) Both variants were purified similarly to the wild-type MadB.

Data set [5] concerns the target T2, Pseudomonas putida KT2440 MadB (PP_0262) variant His46Ala (H46A) (Pseudomonas putida, UniProt Q88R72, H46A).
T2 sequence (Q88R72 1-151 H46A): T1 sequence (Q88R72 1-151 N45A) with A45N, H46A
The data set is described as above.
From the text: as §2, §3

Data set [6] addresses T3, Pseudomonas putida KT2440 MadB (PP_0262, malonyl-ACP decarboxylase), wild type (Pseudomonas putida, UniProt Q88R72).
T3 sequence (Q88R72 1-151): T1 sequence (Q88R72 1-151 N45A) with A45N
As to conditions: malonyl-CoA decarboxylation, ITC, 30° C., pH 7.5.

Substrate in data set [7]: CC(C)(COP(=O)(O)OP(=O)(O)OC[C@H]1O[C@@H](n2cnc3c(N)ncnc32)[C@H](O)[C@@H]1OP(=O)(O)O)[C@@H](O)C(=O)NCCC(=O)NCCSC(=O)CC(=O)O
Kind of data set: purified protein, by the assay type. The following applies: other: malonyl-CoA decarboxylation, ITC, 30° C., pH 7.5.

The mark [8] stands for this setting: malonyl-CoA, Asn45Ala vs wild-type.
Where [9] appears, read: malonyl-CoA, His46Ala vs wild-type.

Residue numbers refer to the chain shown, from its start. Numbers in names are those of the source.

As to `CC(=O)O` [C2], the “effect on growth of ΔmadB ΔfabH1” value in data set [1] was “had no effect on growth”. Besides, in data set [2], the “effect of fatty acid supplementation on growth” value is “no effect on growth”.

Turning to `CCCC(=O)O` [C4], in data set [1], the “effect on growth of ΔmadB ΔfabH1” value was “inhibited”. Moreover, the “effect of fatty acid supplementation on growth” value in data set [2] is recorded as “inhibited”.

In the case of `CCCCCC(=O)O` [C6], the “effect on growth of ΔmadB ΔfabH1” value in data set [1] was “appeared to improve growth, albeit less significantly”. Also, the “effect of fatty acid supplementation on growth” value in data set [2] is “improve growth, albeit less significantly”.

On to `CCCCCCCC(=O)O` [C8], for which the “effect on growth of ΔmadB ΔfabH1” value in data set [1] is “dramatic improvement of growth”. Also, the “effect of fatty acid supplementation on growth” value in data set [2] was “dramatic improvement of growth”.

Consider `CCCCCCCCCC(=O)O` [C10], for which, in data set [1], the “effect on growth of ΔmadB ΔfabH1” value is reported as “dramatic improvement of growth”. Moreover, in data set [2], the “effect of fatty acid supplementation on growth” value is reported as “dramatic improvement of growth”.

For `O=C(O)CC(=O)O` [malonate], in data set [3], the “decarboxylation by MadB” value was “not”.

For the molecule `CC(C)(COP(=O)(O)OP(=O)(O)OC[C@H]1O[C@@H](n2cnc3c(N)ncnc32)[C@H](O)[C@@H]1OP(=O)(O)O)[C@@H](O)C(=O)NCCC(=O)NCCSC(=O)CC(=O)O` [malonyl-CoA], in data set [3], the “decarboxylation by MadB” value was “capable of decarboxylating”. In addition, the Kcat stood at 0.06 ± 0.01 s⁻¹ in data set [4] (malonyl-CoA decarboxylation, Asn45Ala, ITC, 30° C., pH 7.5); 0.45 ± 0.01 s⁻¹ in data set [5] (malonyl-CoA decarboxylation, His46Ala, ITC, 30° C., pH 7.5); 1.4 ± 0.1 s⁻¹ in data set [6]. For the same molecule, the “Michaelis constant relative to wild-type” value in data set [4] (setting [8]) and in data set [5] (setting [9]) was “about half” in each case. Moreover, the results for the “lower catalytic efficiency compared to the wild-type enzyme” value in data set [4] (setting [8]) and in data set [5] (setting [9]) were 13 fold and 1.5 fold, respectively.

For `CC(C(=O)O)C(=O)SCCNC(=O)CCNC(=O)[C@H](O)C(C)(C)COP(=O)(O)OP(=O)(O)OC[C@H]1O[C@@H](n2cnc3c(N)ncnc32)[C@H](O)[C@@H]1OP(=O)(O)O` (stereo partly shown) [methylmalonyl-CoA], the “decarboxylation by MadB” value in data set [3] is reported as “capable of decarboxylating”.

B1: Pseudomonas putida KT2440 MadB (PP_0262, malonyl-ACP decarboxylase), wild type (Pseudomonas putida KT2440) (protein)
chain: T1 sequence (Q88R72 1-151 N45A) with A45N
Consider B1, for which, in data set [7] (wild-type MadB), the Michaelis constant (Km) is 12 ± 1 mM, the kcat was 1.4 s⁻¹ and the kcat/Km came out at 120 M⁻¹ s⁻¹.

B2: Pseudomonas putida KT2440 MadB (PP_0262) variant Asn45Ala (N45A) (Pseudomonas putida KT2440; N45A) (protein)
chain: T1 sequence (Q88R72 1-151 N45A)
With B2, in data set [7] (Asn45Ala), the Km is 6.9 ± 0.5 mM.

B3: Pseudomonas putida KT2440 MadB (PP_0262) variant His46Ala (H46A) (Pseudomonas putida KT2440; H46A) (protein)
chain: T1 sequence (Q88R72 1-151 N45A) with A45N, H46A
In the case of B3, in data set [7] (His46Ala), the Km came out at 5.7 ± 0.2 mM.
